What was measured:
[1] = Kinetic solubility assay (turbidometric, phosphate buffer); conditions: pH 7, aqueous buffer, kinetic from dmso stock
Description: (§1) Solubility of the compounds is determined at four fixed concentrations and is expressed as μg/mL. Solubility or insolubility is measured in phosphate buffer using a turbidometric plate reader by automated micro addition of a compound predissolved in DMSO. Solubilities at 50, 100, 200 and 250 or 100, 200, 400 and 500 micrograms/mL can be determined by predissolving 1 mg of compound in sufficient DMSO to reach an initial concentration of 20 or 40 μg/uL.
(§2) A spectramax 250 UV transparent 96 well microplate is filled with 200 uL of Stock pH 7 phosphate buffer solution. A series of 25 absorption readings in a 5 by 5 matrix at a wavelength of 492 nm are taken for each well in the microplate containing pH buffer alone. This scan is to be used as a “blank”, and the raw optical dispersion (OD) values are used as a baseline.
(§3) Compounds in DMSO solution are then added (column wise) down the microplate. Up to twenty four samples are assayed with each compound being placed in four contiguous wells column wise. Each column of the microplate contains four concentrations of compound in ascending concentration and ascending row order (A-D), or row (E-H). […] The plate is then shaken for 20 minutes to allow for mixing.
(§4) After compound addition, a second scan consisting of a series of 25 absorption readings in a 5 by 5 matrix are taken for each well in the microplate at the same wavelength as the first blank scan. The raw compound OD values for each reading in the 5 by 5 matrix are subtracted from the corresponding “blank” values in the 5 by 5 matrix to provide the raw solubility OD data.
(§5) Data obtained from the Tecan SLT Spectra Image Reader is then analyzed using a Visual Basic computer program (or can be calculated manually according to methods well known to those of ordinary skill in the art), so as to provide solubility data for each compound.

[2] = pH 7
Description: as §1, §2, §3, §4, §5

Row | Compound | solubility at 20 min [1] [µg/mL] | melting point [°C] | Solubility [2]
1 | CC(C)(O)CC[C@H](C[C@H](O)[C@H](Cc1cccs1)NC(=O)c1cnc2ccccc2n1)C(N)=O [Example 1, QUINOXALINE-2-CARBOXYLIC ACID (4(R)-CARBAMOYL-2(S),7-DIHYDROXY-7-METHYL-1(S)-THIOPHEN-2-YLMETHYL-OCTYL)-AMIDE] | > 250 |  | 
2 | CC(C)(O)CC[C@H](C[C@H](O)[C@H](Cc1ccccc1)NC(=O)c1cnc2c(F)c(F)c(F)cc2c1)C(N)=O [Example 5, 6,7,8-Trifluoro-quinoline-3-carboxylic acid (1(S)-benzyl-4(R)-carbamoyl 2(S),7-dihydroxy-7-methyl-octyl)-amide] | > 250 | 185 to 188 | 
3 | CC(C)(O)CC[C@H](C[C@H](O)[C@H](Cc1ccccc1)NC(=O)c1cnc2ccccc2n1)C(=O)NO [Example 6, Quinoxaline-2-carboxylic acid (1(S)-benzyl-2(S),7-dihydroxy-4(R)-hydroxycarbamoyl-7-methyl-octyl)-amide] | > 250 | 108 to 110 | 
4 | CC(C)(O)CC[C@H](C[C@H](O)[C@H](Cc1ccccc1Cl)NC(=O)c1cnc2ccccc2n1)C(N)=O [Example 7, Quinoxaline-2-carboxylic acid [4(R)-carbamoyl-1(S)-(2-chloro-benzyl)-2(S),7-dihydroxy-7-methyl-octyl]-amide] | > 250 |  | 
5 | CC(C)(O)CC[C@H](C[C@H](O)[C@H](Cc1ccccc1F)NC(=O)c1cnc2ccccc2n1)C(=O)NO [Example 8, Quinoxaline-2-carboxylic acid [1(S)-(2-fluoro-benzyl)-2(S),7-dihydroxy-4(R)-hydroxycarbamoyl-7-methyl-octyl]-amide] | > 250 | 130 to 131 | 
6 | CC(C)(O)CC[C@H](C[C@H](O)[C@H](Cc1ccccc1F)NC(=O)c1cnc2ccccc2n1)C(N)=O [Example 9, Quinoxaline-2-carboxylic acid [4(R)-carbamoyl-1(S)-(2-fluoro-benzyl)-2(S),7-dihydroxy-7-methyl-octyl]-amide] | > 250 | 147 to 148 | 
7 | CC(C)(O)CC[C@H](C[C@H](O)[C@H](Cc1ccc(F)c(F)c1)NC(=O)c1cnc2ccccc2n1)C(=O)NO [Example 10, Quinoxaline-2-carboxylic acid [1(S)-(3,4-difluoro-benzyl)-2(S),7-dihydroxy-4(R)-hydroxycarbamoyl-7-methyloctyl]-amide] | > 200 | 150 to 153 | 
8 | CC(C)(O)CC[C@H](C[C@H](O)[C@H](Cc1ccc(F)c(F)c1)NC(=O)c1cnc2ccccc2n1)C(N)=O [Example 11, Quinoxaline-2-carboxylic acid [4(R)-carbamoyl-1(S)-(3,4-difluoro-benzyl)-2(S),7-dihydroxy-7-methyl-octyl]-amide] | > 250 | 110 to 120 | 
9 | CC(C)(O)CC[C@H](C[C@H](O)[C@H](Cc1cccc2ccccc12)NC(=O)c1cnc2ccccc2n1)C(N)=O [Example 12, Quinoxaline-2-carboxylic acid (4(R)-carbamoyl-2(S),7-dihydroxy-7-methyl-1(S)-naphthalen-1-ylmethyl-octyl)-amide] | > 250 | 155 to 158 | 
10 | CNC(=O)[C@H](CC(C)C)C[C@H](O)[C@H](Cc1ccc2ccccc2c1)NC(=O)c1cnc2ccccc2n1 [Example 127, quinoxaline-2-carboxylic acid (2(S)-hydroxy-6-methyl-4(R)-methylcarbamoyl-1(S)-naphthalen-2-ylmethyl-heptyl)-amide, reference compound] | < 5 |  | 
11 | CC(C)(F)CC[C@H](C[C@H](O)[C@H](Cc1ccccc1)NC(=O)c1cnc(Cl)c(Cl)c1)C(N)=O [Example 247] |  |  | less than 5 μg/mL
